Assay: xn = mol fraction of the nth substance listed
Conditions: 101 kPa, Liquid; for viscosity: Capillary tube (Ostwald / Ubbelohde) method; for speed of sound: Linear variable-path acoustic interferometer; for mass density: Pycnometric method

c1ccccc1 [benzene] + CC(=O)OC(C)(C)C
x2 = 0
Conditions | mass density [kg/m3] | speed of sound [m/s] | viscosity [mPa·s]
298.15 K | 873 | 1296 | 0.609
308.15 K | 862 | 1260 | 0.539

CC(=O)OC(C)(C)C [1,1-dimethylethyl ethanoate] + c1ccccc1
Conditions | mass density, 298.15 K [kg/m3] | mass density, 308.15 K [kg/m3] | speed of sound, 298.15 K [m/s] | speed of sound, 308.15 K [m/s] | viscosity, 298.15 K [mPa·s] | viscosity, 308.15 K [mPa·s]
x1 = 0.0987 | 870.6 | 859.3 | 1254 | 1215 | 0.613 | 0.54
x1 = 0.1999 | 868.5 | 856.8 | 1220 | 1179 | 0.618 | 0.542
x1 = 0.299 | 866.7 | 854.9 | 1192 | 1150 | 0.623 | 0.544
x1 = 0.3982 | 865.3 | 853.2 | 1169 | 1127 | 0.629 | 0.548
x1 = 0.498 | 864.1 | 851.9 | 1149 | 1107 | 0.636 | 0.552
x1 = 0.5995 | 863 | 850.8 | 1133 | 1091 | 0.643 | 0.558
x1 = 0.6996 | 862.3 | 850 | 1120 | 1079 | 0.651 | 0.565
x1 = 0.7999 | 861.7 | 849.5 | 1109 | 1068 | 0.661 | 0.574
x1 = 0.8993 | 861.3 | 849.4 | 1099 | 1060 | 0.671 | 0.584
x1 = 1 | 861.1 | 849.4 | 1092 | 1055 | 0.683 | 0.596

CC(=O)OC(C)(C)C [1,1-dimethylethyl ethanoate] + Cc1ccccc1
Conditions | mass density, 298.15 K [kg/m3] | mass density, 308.15 K [kg/m3] | speed of sound, 298.15 K [m/s] | speed of sound, 308.15 K [m/s] | viscosity, 298.15 K [mPa·s] | viscosity, 308.15 K [mPa·s]
x1 = 0.0976 | 861.9 | 851.9 | 1275 | 1232 | 0.567 | 0.502
x1 = 0.1986 | 861.6 | 851.2 | 1242 | 1197 | 0.577 | 0.509
x1 = 0.2993 | 861.2 | 850.5 | 1213 | 1168 | 0.588 | 0.516
x1 = 0.3975 | 860.8 | 849.9 | 1187 | 1143 | 0.599 | 0.524
x1 = 0.4983 | 860.5 | 849.4 | 1165 | 1120 | 0.611 | 0.533
x1 = 0.5978 | 860.3 | 848.9 | 1145 | 1101 | 0.623 | 0.542
x1 = 0.6975 | 860.2 | 848.7 | 1128 | 1085 | 0.636 | 0.553
x1 = 0.7972 | 860.3 | 848.7 | 1113 | 1072 | 0.65 | 0.565
x1 = 0.8987 | 860.6 | 848.9 | 1101 | 1062 | 0.666 | 0.58
x1 = 1 | 861.1 | 849.4 | 1092 | 1055 | 0.683 | 0.596

CCc1ccccc1 [ethylbenzene] + CC(=O)OC(C)(C)C
x2 = 0
Conditions | mass density [kg/m3] | speed of sound [m/s] | viscosity [mPa·s]
298.15 K | 864.4 | 1325 | 0.631
308.15 K | 855.4 | 1280 | 0.569

CC(=O)OC(C)(C)C [1,1-dimethylethyl ethanoate] + CCc1ccccc1
Conditions | mass density, 298.15 K [kg/m3] | mass density, 308.15 K [kg/m3] | speed of sound, 298.15 K [m/s] | speed of sound, 308.15 K [m/s] | viscosity, 298.15 K [mPa·s] | viscosity, 308.15 K [mPa·s]
x1 = 0.0979 | 863.9 | 854.7 | 1287 | 1245 | 0.635 | 0.571
x1 = 0.1974 | 863.3 | 853.9 | 1254 | 1214 | 0.639 | 0.573
x1 = 0.2989 | 862.6 | 852.9 | 1224 | 1186 | 0.641 | 0.573
x1 = 0.3983 | 861.9 | 852 | 1198 | 1161 | 0.644 | 0.574
x1 = 0.4976 | 861.3 | 851.1 | 1176 | 1139 | 0.647 | 0.575
x1 = 0.5986 | 860.7 | 850.3 | 1155 | 1119 | 0.651 | 0.576
x1 = 0.6977 | 860.4 | 849.7 | 1137 | 1101 | 0.656 | 0.579
x1 = 0.7979 | – | 849.3 | 1121 | 1085 | 0.663 | 0.582
x1 = 0.8978 | 860.5 | 849.2 | 1106 | 1069 | 0.671 | 0.588
x1 = 1 | 861.1 | 849.4 | 1092 | 1055 | 0.683 | 0.596

Cc1ccccc1 [toluene] + CC(=O)OC(C)(C)C
x2 = 0
Conditions | mass density [kg/m3] | speed of sound [m/s] | viscosity [mPa·s]
298.15 K | 862.2 | 1312 | 0.556
308.15 K | 852.5 | 1270 | 0.494

— the NIST ThermoML archive (doi:10.1016/j.jct.2011.04.008)
